IC50 data for 21 molecules are collected here from US11021481B2, “Substituted isoindolin-1-ones and 2,3-dihydro-1h-pyrrolo[3,4-c]pyridin-1-ones as HPK1 antagonists” (Nimbus Saturn, Inc., priority 2019, dated 2021).

pIC50: −log10 of the molar value. Structures can show the parent of a compound that is named as a salt.

Sequence of HPK1 (Q92918 whole entry): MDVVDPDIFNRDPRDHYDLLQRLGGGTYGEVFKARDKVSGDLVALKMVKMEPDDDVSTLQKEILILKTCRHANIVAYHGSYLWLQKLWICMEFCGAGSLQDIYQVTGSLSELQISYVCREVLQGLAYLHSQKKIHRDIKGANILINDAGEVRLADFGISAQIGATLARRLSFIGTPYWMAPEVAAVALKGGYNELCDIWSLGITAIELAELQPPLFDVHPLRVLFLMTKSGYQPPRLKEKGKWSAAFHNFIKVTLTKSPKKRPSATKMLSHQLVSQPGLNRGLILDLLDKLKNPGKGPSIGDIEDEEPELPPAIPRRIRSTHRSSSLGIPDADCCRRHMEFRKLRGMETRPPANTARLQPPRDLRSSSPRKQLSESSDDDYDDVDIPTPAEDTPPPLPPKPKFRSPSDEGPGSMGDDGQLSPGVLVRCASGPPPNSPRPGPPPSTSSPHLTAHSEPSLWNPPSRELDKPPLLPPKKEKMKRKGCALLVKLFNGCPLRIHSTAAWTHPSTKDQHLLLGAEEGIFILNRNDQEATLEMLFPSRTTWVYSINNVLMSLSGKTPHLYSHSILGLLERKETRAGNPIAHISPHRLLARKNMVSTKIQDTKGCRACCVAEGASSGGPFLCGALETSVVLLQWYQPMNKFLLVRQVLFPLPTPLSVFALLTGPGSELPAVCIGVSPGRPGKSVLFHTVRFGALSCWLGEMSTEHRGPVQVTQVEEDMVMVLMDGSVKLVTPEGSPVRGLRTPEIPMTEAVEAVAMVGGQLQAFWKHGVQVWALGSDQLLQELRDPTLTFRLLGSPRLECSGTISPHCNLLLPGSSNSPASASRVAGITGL

The assay has as its target HPK1 (Homo sapiens (Human), UniProt Q92918). As to the kind of experiment: HPK1 biochemical enzyme assay (microfluidic mobility shift assay). Particulars: 1.5 nM HPK1, ATP 1 mM final, 30 min preincubation, 60 min at RT, Caliper EZ Reader; read-out: HPK1 1000UMATP caliper IC50. In outline: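 Ten-point compound titrations (top 3 μM final) preincubated 30 min with HPK1 and substrate, then reaction started with 1 mM ATP and 1 μM substrate, 5 mM MgCl2. After 60 min at RT, reaction terminated and product measured by microfluidic mobility shift.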
`Cn1ccc2c(-c3ncc(Nc4ccc([C@@H]5CCOC5)c(CN5CC[C@H](O)C5)n4)c4c3CNC4=O)ccnc21` [I-811, 7-((6-(((S)-3-hydroxypyrroli-din-1-yl)methyl)-5-((S)-THF-3-yl)pyridin-2-yl)amino)-4-(1-methyl-1H-pyrrolo[2,3-b]pyridin-4-yl)-2,3-dihydro-1H-pyrrolo[3,4-c]pyridin-1-one]: the pIC50 was > 7.00.

Regarding `COc1cc(Nc2cnc(-c3ccnc4c3ccn4C)c3c2C(=O)NC3)nc(N2CC[C@H]3CNC[C@H]32)c1` [I-681, 7-((6-((3aS, 6aS)-hexahydropyrrolo[3,4-b]pyrrol-1(2H)-yl)-4-methoxypyridin-2-yl)amino)-4-(1-methyl-1H-pyrrolo[2,3-b]pyridin-4-yl)-2,3-dihydro-1H-pyrrolo[3,4-c]pyridin-1-one], the pIC50 was > 7.00.

For `O=C1NCc2c(-c3cnc4cc(C5CC5)ccn34)ccc(Nc3ccc(N4CCC(O)CC4)cn3)c21` [I-181, 4-(7-cyclopropyl-imidazo[1,2-a]pyridin-3-yl)-7-[[5-(4-hydroxy-1-piperidyl)-2-pyridyl]amino] isoindolin-1-one], the pIC50 is > 7.00.

Take `CC(C)(O)C1CCN(c2ccc(Nc3ccc(-c4cnc5cc(F)ccn45)c4c3C(=O)NC4)nc2)CC1` [I-224]: the pIC50 was > 7.00.

As for `O=C1NCc2c(-c3cnn4c3CCCC4)ccc(Nc3ccc(N4CCC[C@@]5(CCNC5=O)C4)cn3)c21` [I-445, (R)-7-(6-((3-oxo-7-(4,5,6,7-tetrahydropyra-zolo[1,5-a]pyridin-3-yl)isoindolin-4-yl)amino)pyri-din-3-yl)-2,7-diazaspiro[4.5] decan-1-one], the pIC50 was 6.00 to 7.00.

`O=C1NCc2c(-c3cnc4cc(F)ccn34)ccc(Nc3ccc(S(=O)(=O)CC4COC4)cn3)c21` [I-377, 4-(7-fluoroimidazo [1,2-a]pyridin-3-yl)-7-((5-((oxctan-3-ylmethyl)sulf-onyl)pyridin-2-yl)amino)isoin-dolin-1-one]: the pIC50 is 6.00 to 7.00.

In the case of `Cc1cnc2[nH]ccc2c1-c1ccc(Nc2ccc(N3CCN(C)CC3)cn2)c2c1CNC2=O` [I-78, 7-[[5-(4-methylpiperazin-1-yl)-2-pyridyl]amino]-4-(5-methyl-1H-pyrrolo[2,3-b]pyridin-4-yl)isoindolin-1-one], the pIC50 was 6.00 to 7.00.

For `CN(C)C1(C2CN(c3ccc(Nc4ccc(-c5cnc6cc(F)ccn56)c5c4C(=O)NC5)nc3)CCO2)CC1` (stereo in doubt) [I-687, (S)-7-((5-(2-(1-(dimethylami-no)cyclopropyl)morpholino)py-ridin-2-yl)amino)-4-(7-fluoroimidazo [1,2-a]pyridin-3-yl)isoindolin-1-one], the pIC50 was > 7.00.

`O=C1NCc2c(-c3c[nH]c4ccccc34)ncc(Nc3ccc(N4CCC(F)(F)CC4)cn3)c21` [I-12, 7-[[5-(4,4-difluoro-1-piperidyl)-2-pyridyl]amino]-4-(1H-indol-3-yl)-2,3-dihydropyrrolo [3,4-c]pyridin-1-one]: the pIC50 is < 6.00.

`CN(C)C[C@H]1CN(c2ccc(Nc3ccc(-c4cnc5cc(F)ccn45)c4c3C(=O)NC4)nc2)CCO1` [I-604, (S)-7-((5-(2-((dimethylamino)-methyl)mor pholino)pyridin-2-yl)amino)-4-(7-fluoroimidazo [1,2-a]pyridin-3-yl)isoindolin-1-one]: the pIC50 was > 7.00.

As to `Cc1[nH]c2ccccc2c1-c1ncc(Nc2ccc(N3CCN(C)CC3)cn2)c2c1CNC2=O` [I-11, 4-(2-methyl-1H-indol-3-yl)-7-[[5-(4-methylpiperazin-1-yl)-2-pyridyl]amino]-2,3-dihydropyrrolo [3,4-c]pyridin-1-one], the pIC50 is 6.00 to 7.00.

Regarding `CC(C)(O)[C@H]1COCCN(c2ccc(Nc3ccc(-c4cnc5cc(F)ccn45)c4c3C(=O)NC4)nc2)C1` [I-626, (R)-4-(7-fluoroimidazo [1,2-a]pyridin-3-yl)-7-((5-(6-(2-hydroxypropan-2-yl)-1,4-oxazepan-4-yl)pyridin-2-yl)amino)isoin-dolin-1-one], the negative-log IC50 (pIC50) was > 7.00.

Take `Cn1ccc2c(-c3ncc(Nc4ccc(N5CCO[C@H](C(C)(C)O)C5)cn4)c4c3CNC4=O)cccc21` [I-484, 7-[[5-[(2S)-2-(1-hydroxy-1-methyl-ethyl)morpholin-4-yl]-2-pyridyl]amino]-4-(1-methylindol-4-yl)-2,3-dihydropyrrolo [3,4-c]pyridin-l-one]: the pIC50 was > 7.00.

For `Cc1cnc2c(-c3ccc(Nc4ccc(N5CCC(O)CC5)cn4)c4c3CNC4=O)cccn12` [I-215, 7-[[5-(4-hydroxy-1-piperidyl)-2-pyridyl]-amino]-4-(3-methylimidazo [1,2-a]pyridin-8-yl)isoindolin-1-one], the pIC50 was 6.00 to 7.00.

With `CN(C)Cc1nc(Nc2cnc(-c3ccnc4[nH]ccc34)c3c2C(=O)NC3)ccc1[C@H]1CCOC1` [I-767, (R)-7-((6-((dimethylamino)-methyl)-5-(tetrahydrofuran-3-yl)pyridin-2-yl)amino)-4-(1H-pyrrolo[2,3-b]pyridin-4-yl)-2,3-dihydro-1H-pyrrolo[3,4-c]pyridin-1-one], the pIC50 is > 7.00.

Turning to `COC[C@H]1CN(c2ccc(Nc3ccc(-c4cnc5c(F)c(C)ccn45)c4c3C(=O)NC4)nc2)CCO1` [I-580, (R)-4-(8-fluoro-7-methylimidazo [1,2-a]pyridin-3-yl)-7-((5-(2-(methoxymeth-yl)morpho-lino)pyridin-2-yl)amino)isoin-dolin-1-one], the pIC50 was > 7.00.

Regarding `Cc1cc(Nc2cnc(-c3ccnc4c3ccn4C)c3c2C(=O)NC3)nc(N2CC[C@@H]3CN(C)C[C@@H]32)c1` [I-644, 4-(1-methyl-1H-pyrrolo[2,3-b]pyridin-4-yl)-7-((4-methyl-6-((3aR,6aR)-5-methylhexahydropyrrolo[3,4-b]pyrrol-1(2H)-yl)pyridin-2-yl)amino)-2,3-dihydro-1H-pyrrolo[3,4-c]pyridin-1-one], the pIC50 was 6.00 to 7.00.

For the molecule `CN(C)C[C@@H]1CN(c2ccc(Nc3ccc(-c4cnc5cc(F)ccn45)c4c3C(=O)NC4)nc2)CCO1` [I-603, (R)-7-((5-(2-((dimethylamino)-methyl)mor-pholino)pyridin-2-yl)amino)-4-(7-fluoroimidazo [1,2-a]pyridin-3-yl)isoindolin-1-one], the negative-log IC50 (pIC50) is > 7.00.

Take `CC(C)NCc1nc(Nc2cnc(-c3ccnc4c3ccn4C)c3c2C(=O)NC3)ccc1C1CCOCC1` [I-844, 7-[[6-[(isopropylamino)-methyl]-5-tetrahydropy-ran-4-yl-2-pyridyl]amino]-4-(1-methylpyrrolo [2,3-b]pyridin-4-yl)-2,3-dihydropyrrolo [3,4-c]pyridin-1-one Formic acid salt]: the pIC50 is > 7.00.

Take `Cn1ccc2c(-c3ncc(Nc4ccc(N5CCO[C@H](C(C)(C)O)C5)cn4)c4c3CNC4=O)ccnc21` [I-471, 7-[[5-[(2S)-2-(1-hydroxy-1-methyl-ethyl)morpholin-4-yl]-2-pyridyl]amino]-4-(1-methylpyrrolo [2,3-b]pyridin-4-yl)-2,3-dihydropyrrolo [3,4-c]pyridin-1-one]: the pIC50 was > 7.00.

Take `CC1(O)CCN(c2ccc(Nc3ccc(-c4cnc5cc(F)ccn45)c4c3C(=O)NC4)nc2)CC1` [I-397, 4-(7-fluoroimidazo [1,2-a]pyridin-3-yl)-7-((5-(4-hydroxy-4-methylpiperidin-1-yl)pyridin-2-yl)amino)isoin-dolin-1-one]: the pIC50 was > 7.00.
